# According to US20230085307A1, “PYRIDAZINONE COMPOUND AND HERBICIDE” (NISSAN CHEMICAL CORPORATION, priority 2019, published 2023):
# Tests used:
# [1] = test system: windgrass; experiment: Test Example 4: herbicidal effect by soil treatment (Table 19, symbol L); format: in vivo, windgrass (Apera spica-venti); settings: AAH 320 g/ha
# In short: (§1)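 Seeds were sown in sterilized diluvial soil and covered with about 1.5 cm of soil. An emulsion formulation diluted with water to a predetermined herbicide amount was sprayed evenly onto the soil surface. Plants grew in a greenhouse at 25° C. to 30° C., and the effect was scored three weeks after application using criteria from an earlier test.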
# [2] = test system: barnyard grass; experiment: Test Example 3: herbicidal effect by foliage application, Wagner pot (Table 18, symbol H); format: in vivo, barnyard grass (Echinochloa crus-galli); settings: for herbicidal effect on H (barnyard grass), rating 0-5: 320 g/ha; for herbicidal effect on H: barnyard grass: amount of applied herbicide 320 g/ha
# In short: (§2)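 Plants were sown in alluvial soil held under 0.1–0.5 cm standing water and grown 14 days in a greenhouse at 25–30 °C. An emulsifiable formulation, water-diluted to the set dose, was then sprayed onto the foliage, and effects were scored three weeks later using previously defined criteria.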
# [3] = test system: oval-leafed pondweed; experiment: Test Example 1: herbicidal activity, application before weed generation under submerged conditions (Table 16, symbol C); format: in vivo, oval-leafed pondweed (Monochoria vaginalis); settings: 320 g/ha applied herbicide
# In short: (§3)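 Alluvial soil was flooded to 4 cm depth, weed seeds were sown mixed and 2.5-leaf rice seedlings were transplanted. On sowing day, the compound's emulsion, diluted in water to a set dose, was applied to the water surface. Plants grew at 25–30 °C and were scored 0–5 after three weeks.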
# [4] = test system: lambsquarters; experiment: Test Example 4: herbicidal effect by soil treatment (Table 19, symbol O); format: in vivo, lambsquarters (Chenopodium album)
# In short: as §1
# [5] = test system: Japanese bulrush; experiment: Test Example 1: herbicidal activity, application before weed generation under submerged conditions (Table 16, symbol B); format: in vivo, Japanese bulrush (Schoenoplectus juncoides); settings: 320 g/ha applied herbicide
# In short: as §3
# [6] = test system: velvetleaf; experiment: Test Example 4: herbicidal effect by soil treatment (Table 19, symbol M); format: in vivo, velvetleaf (Abutilon theophrasti)
# In short: as §1
# [7] = test system: late watergrass; experiment: Test Example 2: herbicidal activity, application during weed generation under submerged conditions (Table 17, symbol A); format: in vivo, late watergrass (Echinochloa oryzicola); settings: AAH 320 g/ha; application during weed generation, submerged conditions
# In short: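 Effect on each weed is rated three weeks post-treatment, using the same scoring criteria as the preceding test. Plants grow from mixed-sown seed in flooded alluvial soil (4 cm water) at 25° C. to 30° C., and are treated at one to two leaves with diluted emulsion dropped onto the water.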
# [8] = test system: velvetleaf; experiment: Test Example 5: herbicidal effect by foliage application, plastic box (Table 20, symbol M); format: in vivo, velvetleaf (Abutilon theophrasti); settings: foliage application
# In short: (§4)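 Plants sown in sterilized diluvial soil and grown 14 days in a greenhouse at 25° C to 30° C, then sprayed on the foliage with the compound's emulsion diluted in water to a predetermined herbicide amount. Injury to weeds and crops scored three weeks after application on a visual rating scale.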
# [9] = test system: persian speedwell; experiment: Test Example 4: herbicidal effect by soil treatment (Table 19, symbol R); format: in vivo, Persian speedwell (Veronica persica)
# In short: as §1
# [10] = test system: blackgrass; experiment: Test Example 5: herbicidal effect by foliage application, plastic box (Table 20, symbol J); format: in vivo, blackgrass (Alopecurus myosuroides); settings: foliage application
# In short: as §4
# [11] = test system: Chinese sprangletop; experiment: Test Example 3: herbicidal effect by foliage application, Wagner pot (Table 18, symbol D); format: in vivo, chinese sprangletop (Leptochloa chinensis); settings: for herbicidal effect on D (Chinese sprangletop), rating 0-5: 320 g/ha; for herbicidal effect on D: Chinese sprangletop: amount of applied herbicide 320 g/ha
# In short: as §2
# [12] = test system: barnyard grass; experiment: Test Example 5: herbicidal effect by foliage application, plastic box (Table 20, symbol H); format: in vivo, barnyard grass (Echinochloa crus-galli); settings: foliage application
# In short: as §4
# [13] = test system: Italian ryegrass; experiment: Test Example 5: herbicidal effect by foliage application, plastic box (Table 20, symbol K); format: in vivo, Italian ryegrass (Lolium multiflorum); settings: foliage application
# In short: as §4
# [14] = test system: barnyard grass; experiment: Test Example 4: herbicidal effect by soil treatment (Table 19, symbol H); format: in vivo, barnyard grass (Echinochloa crus-galli)
# In short: as §1
# [15] = test system: lambsquarters; experiment: Test Example 5: herbicidal effect by foliage application, plastic box (Table 20, symbol O); format: in vivo, lambsquarters (Chenopodium album); settings: foliage application
# In short: as §4
# [16] = test system: redroot pigweed; experiment: Test Example 5: herbicidal effect by foliage application, plastic box (Table 20, symbol N); format: in vivo, redroot pigweed (Amaranthus retroflexus); settings: foliage application
# In short: as §4
# [17] = 320 g/ha, 3 weeks after application
# [18] = amount of applied herbicide 320 g/ha
# [19] = AAH 320 g/ha, evaluated three weeks after application
# [20] = AAH 320 g/ha, three weeks after application
# [21] = 320 g/ha, evaluated three weeks after application
compound,measurement,setting,value
Cc1nn(C)c(=O)c(-c2c(-c3ccc(F)cc3)sc3ccc(F)cc23)c1O [2-001],"L: windgrass, herbicidal effect rating",[1],0 (Herbicidal rate of 5% or less (almost no effect))
same,"herbicidal effect on H (barnyard grass), rating 0-5",[2],5 (Herbicidal rate of 90% or more (almost completely withered))
same,Herbicidal effect on C: oval-leafed pondweed (grade 0-5),[3],1 (Herbicidal rate of 5% or more and less than 20%)
same,"O: lambsquarters, herbicidal effect rating",[4]; AAH 320 g/ha,5 (Herbicidal rate of 90% or more (almost completely withered))
same,Herbicidal effect on B: Japanese bulrush (grade 0-5),[5],3 (Herbicidal rate of 40% or more and less than 70%)
same,"M: velvetleaf, herbicidal effect rating",[6]; AAH 320 g/ha,5 (Herbicidal rate of 90% or more (almost completely withered))
same,"herbicidal effect rating, A: late watergrass",[7],1 (Herbicidal rate of 5% or more and less than 20%)
same,effect on velvetleaf (M),[8]; [17],5 (Herbicidal rate of 90% or more (almost completely withered))
same,"R: persian speedwell, herbicidal effect rating",[9]; AAH 320 g/ha,5 (Herbicidal rate of 90% or more (almost completely withered))
same,effect on blackgrass (J),[10]; [17],4 (Herbicidal rate of 70% or more and less than 90%)
same,"herbicidal effect on D (Chinese sprangletop), rating 0-5",[11],5 (Herbicidal rate of 90% or more (almost completely withered))
same,effect on barnyard grass (H),[12]; [17],5 (Herbicidal rate of 90% or more (almost completely withered))
same,effect on Italian ryegrass (K),[13]; [17],5 (Herbicidal rate of 90% or more (almost completely withered))
same,"H: barnyard grass, herbicidal effect rating",[14]; AAH 320 g/ha,3 (Herbicidal rate of 40% or more and less than 70%)
same,effect on lambsquarters (O),[15]; [17],5 (Herbicidal rate of 90% or more (almost completely withered))
COCCOC(=O)Oc1c(C)nn(C)c(=O)c1-c1c(-c2ccc(OC(F)F)cc2)sc2ccc(F)cc12 [2-295],herbicidal effect on H: barnyard grass,[2],5 (Herbicidal rate of 90% or more (almost completely withered))
same,Herbicidal effect on C: oval-leafed pondweed (grade 0-5),[3],2 (Herbicidal rate of 20% or more and less than 40%)
same,herbicidal effect on O: lambsquarters,[4]; [18],5 (Herbicidal rate of 90% or more (almost completely withered))
same,Herbicidal effect on B: Japanese bulrush (grade 0-5),[5],3 (Herbicidal rate of 40% or more and less than 70%)
same,herbicidal effect on M: velvetleaf,[6]; [18],4 (Herbicidal rate of 70% or more and less than 90%)
same,"herbicidal effect rating, A: late watergrass",[7],5 (Herbicidal rate of 90% or more (almost completely withered))
same,"M: velvetleaf, herbicidal effect (criteria 0-5)",[8]; [19],5 (Herbicidal rate of 90% or more (almost completely withered))
same,herbicidal effect on R: persian speedwell,[9]; [18],5 (Herbicidal rate of 90% or more (almost completely withered))
same,"J: blackgrass, herbicidal effect (criteria 0-5)",[10]; [19],4 (Herbicidal rate of 70% or more and less than 90%)
same,herbicidal effect on D: Chinese sprangletop,[11],4 (Herbicidal rate of 70% or more and less than 90%)
same,"H: barnyard grass, herbicidal effect (criteria 0-5)",[12]; [19],5 (Herbicidal rate of 90% or more (almost completely withered))
same,"N: redroot pigweed, herbicidal effect (criteria 0-5)",[16]; [19],5 (Herbicidal rate of 90% or more (almost completely withered))
same,"K: Italian ryegrass, herbicidal effect (criteria 0-5)",[13]; [19],5 (Herbicidal rate of 90% or more (almost completely withered))
same,herbicidal effect on H: barnyard grass,[14]; [18],5 (Herbicidal rate of 90% or more (almost completely withered))
same,"O: lambsquarters, herbicidal effect (criteria 0-5)",[15]; [19],5 (Herbicidal rate of 90% or more (almost completely withered))
C=CCOc1ccccc1-c1sc2ccccc2c1-c1c(O)c(C)nn(C)c1=O [1-110],"herbicidal effect on H (barnyard grass), rating 0-5",[2],4 (Herbicidal rate of 70% or more and less than 90%)
same,Herbicidal effect on C: oval-leafed pondweed (grade 0-5),[3],4 (Herbicidal rate of 70% or more and less than 90%)
same,"herbicidal effect rating, O: lambsquarters",[4]; [18],0 (Herbicidal rate of 5% or less (almost no effect))
same,Herbicidal effect on B: Japanese bulrush (grade 0-5),[5],0 (Herbicidal rate of 5% or less (almost no effect))
same,"herbicidal effect rating, M: velvetleaf",[6]; [18],1 (Herbicidal rate of 5% or more and less than 20%)
same,"herbicidal effect rating, A: late watergrass",[7],3 (Herbicidal rate of 40% or more and less than 70%)
same,"M: velvetleaf, herbicidal effect",[8]; [20],2 (Herbicidal rate of 20% or more and less than 40%)
same,"herbicidal effect rating, R: persian speedwell",[9]; [18],3 (Herbicidal rate of 40% or more and less than 70%)
same,"J: blackgrass, herbicidal effect",[10]; [20],4 (Herbicidal rate of 70% or more and less than 90%)
same,"herbicidal effect on D (Chinese sprangletop), rating 0-5",[11],3 (Herbicidal rate of 40% or more and less than 70%)
same,"H: barnyard grass, herbicidal effect",[12]; [20],3 (Herbicidal rate of 40% or more and less than 70%)
same,"N: redroot pigweed, herbicidal effect",[16]; [20],0 (Herbicidal rate of 5% or less (almost no effect))
same,"K: Italian ryegrass, herbicidal effect",[13]; [20],0 (Herbicidal rate of 5% or less (almost no effect))
same,"herbicidal effect rating, H: barnyard grass",[14]; [18],3 (Herbicidal rate of 40% or more and less than 70%)
same,"O: lambsquarters, herbicidal effect",[15]; [20],0 (Herbicidal rate of 5% or less (almost no effect))
Cc1nn(C)c(=O)c(-c2c(-c3ccc(OC(F)F)cc3)sc3ccc(F)cc23)c1OC(=O)c1cccs1 [2-288],herbicidal effect on H: barnyard grass,[2],5 (Herbicidal rate of 90% or more (almost completely withered))
same,Herbicidal effect on C: oval-leafed pondweed (grade 0-5),[3],4 (Herbicidal rate of 70% or more and less than 90%)
same,herbicidal effect on O: lambsquarters,[4]; [18],4 (Herbicidal rate of 70% or more and less than 90%)
same,Herbicidal effect on B: Japanese bulrush (grade 0-5),[5],5 (Herbicidal rate of 90% or more (almost completely withered))
same,herbicidal effect on M: velvetleaf,[6]; [18],3 (Herbicidal rate of 40% or more and less than 70%)
same,"herbicidal effect rating, A: late watergrass",[7],3 (Herbicidal rate of 40% or more and less than 70%)
same,"M: velvetleaf, herbicidal effect (criteria 0-5)",[8]; [19],5 (Herbicidal rate of 90% or more (almost completely withered))
same,herbicidal effect on R: persian speedwell,[9]; [18],5 (Herbicidal rate of 90% or more (almost completely withered))
same,"J: blackgrass, herbicidal effect (criteria 0-5)",[10]; [19],4 (Herbicidal rate of 70% or more and less than 90%)
same,herbicidal effect on D: Chinese sprangletop,[11],4 (Herbicidal rate of 70% or more and less than 90%)
same,"H: barnyard grass, herbicidal effect (criteria 0-5)",[12]; [19],5 (Herbicidal rate of 90% or more (almost completely withered))
same,"N: redroot pigweed, herbicidal effect (criteria 0-5)",[16]; [19],5 (Herbicidal rate of 90% or more (almost completely withered))
same,"K: Italian ryegrass, herbicidal effect (criteria 0-5)",[13]; [19],5 (Herbicidal rate of 90% or more (almost completely withered))
same,herbicidal effect on H: barnyard grass,[14]; [18],2 (Herbicidal rate of 20% or more and less than 40%)
same,"O: lambsquarters, herbicidal effect (criteria 0-5)",[15]; [19],5 (Herbicidal rate of 90% or more (almost completely withered))
CCCC(=O)Oc1c(C)nn(C)c(=O)c1-c1c(-c2ccc(C(C)=O)cc2)sc2ccc(F)cc12 [2-078],"herbicidal effect on H (barnyard grass), rating 0-5",[2],3 (Herbicidal rate of 40% or more and less than 70%)
same,Herbicidal effect on C: oval-leafed pondweed (grade 0-5),[3],4 (Herbicidal rate of 70% or more and less than 90%)
same,"herbicidal effect rating, O: lambsquarters",[4]; 320 g/ha,4 (Herbicidal rate of 70% or more and less than 90%)
same,Herbicidal effect on B: Japanese bulrush (grade 0-5),[5],4 (Herbicidal rate of 70% or more and less than 90%)
same,"herbicidal effect rating, M: velvetleaf",[6]; 320 g/ha,3 (Herbicidal rate of 40% or more and less than 70%)
same,"herbicidal effect rating, A: late watergrass",[7],3 (Herbicidal rate of 40% or more and less than 70%)
same,herbicidal effect on M: velvetleaf,[8]; [21],5 (Herbicidal rate of 90% or more (almost completely withered))
same,"herbicidal effect rating, R: persian speedwell",[9]; 320 g/ha,5 (Herbicidal rate of 90% or more (almost completely withered))
same,herbicidal effect on J: blackgrass,[10]; [21],4 (Herbicidal rate of 70% or more and less than 90%)
same,"herbicidal effect on D (Chinese sprangletop), rating 0-5",[11],5 (Herbicidal rate of 90% or more (almost completely withered))
same,herbicidal effect on H: barnyard grass,[12]; [21],2 (Herbicidal rate of 20% or more and less than 40%)
same,herbicidal effect on N: redroot pigweed,[16]; [21],5 (Herbicidal rate of 90% or more (almost completely withered))
same,herbicidal effect on K: Italian ryegrass,[13]; [21],5 (Herbicidal rate of 90% or more (almost completely withered))
same,"herbicidal effect rating, H: barnyard grass",[14]; 320 g/ha,0 (Herbicidal rate of 5% or less (almost no effect))
same,herbicidal effect on O: lambsquarters,[15]; [21],4 (Herbicidal rate of 70% or more and less than 90%)
